# Test results: PMC12590273, “Systematic design of DMBT1-derived peptides correlating physicochemical properties and sequence motifs with siRNA delivery and efficacy in cancer therapy” (eBioMedicine, 2025)
# Non-standard residues stand in square brackets, D forms with d. Residues, ends and D or L forms follow the SMILES beside them.
# Experiments:
# [1] = tested on: siRNA (Stealth RNAi Negative Control siRNA); experiment: Electrophoretic mobility shift assay (EMSA), peptide-siRNA binding/encapsulation; conditions: peptides 10–100 μM mixed with siRNA at 1:10–1:100 molar ratios in RNase-free water, 30 min 37 °C or 1 h 50 °C; 4% agarose gel, MOPS pH 7.5, GelRed
# Procedure: Peptides (10–100 μM) were mixed with siRNA at 1:10–1:100 molar ratios in RNase-free water and incubated 30 min at 37 °C (or 1 h at 50 °C for low-binding peptides). Complexes, supplemented with 5% glycerol, were run on 4% agarose gels in MOPS buffer (pH 7.5) at 70 V for 30 min, stained with GelRed, and imaged under UV. FastRuler UltraLow served as the size marker.
# A375 and MCF7 cells = experiment: Cell internalisation of DCPP/Alexa Fluor 555 siRNA complexes (statements not split by cell line); type: cell-based; conditions: Alexa Fluor 555 siRNA 25–100 nM, 24 h, fluorescence normalised to crystal violet; cell line not stated
# Procedure: A375 (RRID: CVCL_0132) and MCF7 cells (RRID: CVCL_0031) were obtained from ATCC. MEL-STV cells (here called MelST, RRID: CVCL_9U71) are immortalised human melanocytes generated by introducing SV40 large T antigen and hTERT. They are non-tumorigenic and were kindly provided by Dr. Robert Allan Weinberg (Whitehead Institute, MIT). All cell lines were cultured in DMEM + GlutaMax™ with 5% FBS at 37 °C/5% CO2. Working solutions of Alexa Fluor 555 siRNA were prepared in UltraPure DNase/RNase-Free Distilled Water at concentrations of 100–400 nM, and peptide solutions were prepared to achieve the desired peptide–siRNA binding molar ratios, selected based on the siRNA binding efficiency of each peptide. siRNA was mixed with its respective peptide solution and incubated for 30 min at 37 °C or 1 h at 50 °C, depending on the peptide. After incubation, the complexes were diluted in OptiMEM and added to the wells at 50 μL per well, with final siRNA concentrations ranging from 25 to 100 nM. […] OptiMEM without phenol red was added, and fluorescence was measured using Alexa Fluor 555 (excitation/emission: 553/568 nm, reading: 535/595 nm). Cells were subsequently stained with crystal violet and resuspended in citrate buffer, and absorbance was measured. Crystal violet absorbance was used to normalise the fluorescence signal, accounting for cell density or viability differences.
# GAPDH in A375 cells = experiment: GAPDH silencing by DCPP/GAPDH-siRNA complexes (KDalert kit); type: cell-based, human; conditions: 2.5% FBS, 48 h, three biological replicates
# Procedure: GAPDH silencing: DCPP/GAPDH-siRNA complexes were prepared as above, diluted in OptiMEM, and added (50 μL) to 96-well plates. A375 and MCF7 cells (2 × 10^3 cells/well) in 50 μL OptiMEM + 5% FBS + 1% P/S were plated onto the complexes (final 100 μL, 2.5% FBS). After 48 h, GAPDH knock-down was measured with the KDalert™ kit.
Compound,siRNA binding / encapsulation (peptide-siRNA binding molar ratio by EMSA) [1],shape of dose–response curve of cell interaction (A375 and MCF7 cells),GAPDH silencing in A375 cells (GAPDH in A375 cells)
"CC(=O)N[C@@H](CCCCN)C(=O)N1CCC[C@H]1C(=O)N[C@@H](CO)C(=O)N[C@@H](CO)C(=O)N1CCC[C@H]1C(=O)N1CCC[C@H]1C(=O)N[C@@H](CCC(=O)O)C(=O)N[C@@H](CCC(=O)O)C(=O)NCC(=O)N[C@H](CCCNC(=N)N)C(=O)N[C@H](C(=O)N[C@@H](CCC(=O)O)C(=O)N[C@H](C(=O)N[C@@H](CC(C)C)C(=O)N[C@@H](Cc1c[nH]cn1)C(=O)N[C@@H](Cc1c[nH]cn1)C(=O)N[C@@H](Cc1c[nH]cn1)C(=O)N[C@@H](Cc1c[nH]cn1)C(=O)N[C@H](Cc1c[nH]c2ccccc12)C(=O)N[C@@H](CCCNC(=N)N)C(=O)N[C@@H](CCCNC(=N)N)C(=O)N[C@@H](CCCNC(=N)N)C(=O)N[C@@H](CCCNC(=N)N)C(=O)N[C@H](Cc1c[nH]c2ccccc12)C(N)=O)C(C)C)C(C)C [A6DH, Ac-KPSSPPEEGrVEVLHHHHwRRRRw-NH2] (Ac-KPSSPPEEG[dR]VEVLHHHH[dW]RRRR[dW]-NH2)",no detectable siRNA binding,–,–
"Ac-GRVEVLRRRRWKPSSPPEEHH-NH2 [D4RA6H, CD44-targeting DMBT1-derived peptide containing the A6 motif]",no detectable siRNA binding,–,–
SREPRGD,efficiently bound siRNA,sigmoid curve with a plateau,significant gene silencing
SREPRGDK,efficiently bound siRNA,–,–
